Experimental data published in patent US12661342B2, “Heteroaryl compounds and therapeutic uses thereof in conditions associated with the alteration of the activity of beta-glucocerebrosidase” (GT GAIN THERAPEUTICS SA, priority 2019, dated 2026).

The molecules below were run against T1, β-glucocerebrosidase (Homo sapiens, UniProt P04062, L483P) (assay: Enhancement of β-glucocerebrosidase activity measured in Gaucher disease fibroblasts (4-MU-β-D-glucopyranoside substrate, intact cells)). Conditions: GBA fibroblasts bearing L444P (GM08760A, homozygous p.L444P); compound at concentrations between 6 and 50 μM; 4 days incubation.
T1 construct: host or cells: human Gaucher disease patient fibroblasts GM08760A
T1 sequence (P04062 40-536 L483P): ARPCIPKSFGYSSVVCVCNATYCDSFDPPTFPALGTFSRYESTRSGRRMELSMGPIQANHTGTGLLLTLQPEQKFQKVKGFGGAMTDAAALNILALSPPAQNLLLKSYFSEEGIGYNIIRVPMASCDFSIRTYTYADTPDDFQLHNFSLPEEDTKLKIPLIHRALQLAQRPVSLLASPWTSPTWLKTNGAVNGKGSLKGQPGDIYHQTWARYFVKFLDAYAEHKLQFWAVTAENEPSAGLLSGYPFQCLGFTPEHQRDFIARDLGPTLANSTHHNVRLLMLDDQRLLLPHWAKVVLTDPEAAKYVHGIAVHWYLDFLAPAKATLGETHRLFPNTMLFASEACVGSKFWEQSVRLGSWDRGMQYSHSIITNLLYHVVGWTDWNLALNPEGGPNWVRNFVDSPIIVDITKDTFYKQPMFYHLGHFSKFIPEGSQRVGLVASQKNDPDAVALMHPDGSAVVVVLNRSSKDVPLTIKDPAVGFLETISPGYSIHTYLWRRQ
Type: cell-based
Set-up: key: Increase in comparison with non-treated of >2.0 fold is shown as A; Increase in comparison with non-treated of >1.7-2.0 fold is shown as B; Increase in comparison with non-treated of 1.2-1.7 fold is shown as C; D means that no increase compared with non-treated cells was detected in this method
Summary of the method: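 Patient fibroblasts homozygous for p.L444P (GM08760A), grown in DMEM/10% FBS and exposed to compound for 4 days. Intact cells then given 4-MU-β-D-glucopyranoside in 0.1 M acetate pH 4, 1 h, 37 °C; stopped at pH 10.7, 4-MU fluorescence ex 340/em 460. Value is fold increase over untreated cells; binned at 6–50 μM.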

Structure (SMILES)	Range: increase in enzyme activity in comparison with non-treated cells (Enzyme activity assay for compounds of Examples 33-141)
Nc1cc(Nc2ccccn2)cc(C(=O)Nc2ccccc2)n1 [Example 79, 6-Amino-N-phenyl-4-(pyridin-2-ylamino)pyridine-2-carboxamide]	C (Increase in comparison with non-treated of 1.2-1.7 fold is shown as C)
Nc1cc(Nc2cccnc2)cc(C(=O)Nc2ccccc2)n1 [Example 80, 6-Amino-N-phenyl-4-(pyridin-3-ylamino)picolinamide]	C (Increase in comparison with non-treated of 1.2-1.7 fold is shown as C)
Nc1nc(Nc2ccccc2O)cc(C(=O)NC2Cc3ccccc3C2)n1 [Example 81, 2-amino-N-(2,3-dihydro-1H-inden-2-yl)-6-((2-hydroxyphenyl)amino)pyrimidine-4-carboxamide]	B (Increase in comparison with non-treated of >1.7-2.0 fold is shown as B)
CN(C(=O)c1cc(Nc2ccccc2O)nc(N)n1)C1Cc2ccccc2C1 [Example 82, 2-Amino-N-(2,3-dihydro-1H-inden-2-yl)-6-((2-hydroxyphenyl)amino)-N-methylpyrimidine-4-carboxamide]	C (Increase in comparison with non-treated of 1.2-1.7 fold is shown as C)
CN(C(=O)c1cc(Nc2ccccc2O)nc(N)n1)C1CCc2ccccc2C1 (centres unmarked) [Example 83, 2-amino-6-((2-hydroxyphenyl)amino)-N-methyl-N-(1,2,3,4-tetrahydronaphthalen-2-yl)-pyrimidine-4-carboxamide]	D
Nc1nc(Nc2ccccc2O)cc(C(=O)NC2CCc3ccccc3C2)n1 (centres unmarked) [Example 84, 2-Amino-6-((2-hydroxyphenyl)amino)-N-(1,2,3,4-tetrahydronaphthalen-2-yl)pyrimidine-4-carboxamide]	C (Increase in comparison with non-treated of 1.2-1.7 fold is shown as C)
Nc1nc(Nc2ccccc2O)cc(C(=O)N2CCc3ccccc3C2)n1 [Example 85, (2-Amino-6-((2-hydroxyphenyl)amino)pyrimidin-4-yl)(3,4-dihydroisoquinolin-2(1H)-yl)methanone]	C (Increase in comparison with non-treated of 1.2-1.7 fold is shown as C)
Nc1nc(Nc2ccccc2O)cc(C(=O)N2Cc3ccccc3C2)n1 [Example 86, (2-Amino-6-((2-hydroxyphenyl)amino)pyrimidin-4-yl)(isoindolin-2-yl)methanone]	C (Increase in comparison with non-treated of 1.2-1.7 fold is shown as C)
Cc1ccccc1Nc1cc(N)cc(C(=O)NC2Cc3ccccc3C2)n1 [Example 87, 4-Amino-N-(2,3-dihydro-1H-inden-2-yl)-6-(o-tolylamino)picolinamide]	B (Increase in comparison with non-treated of >1.7-2.0 fold is shown as B)
Nc1cc(Nc2ccccc2O)nc(C(=O)N2CCN(c3ccccc3)CC2)c1 [Example 88, (4-Amino-6-((2-hydroxyphenyl)amino)pyridin-2-yl)(4-phenylpiperazin-1-yl)methanone]	C (Increase in comparison with non-treated of 1.2-1.7 fold is shown as C)
Nc1cc(Nc2cccc3c2OCO3)nc(C(=O)NC2Cc3ccccc3C2)c1 [Example 89, 4-Amino-6-(benzo[d][1,3]dioxol-4-ylamino)-N-(2,3-dihydro-1H-inden-2-yl)picolinamide]	C (Increase in comparison with non-treated of 1.2-1.7 fold is shown as C)
Cc1cccc(Nc2cc(N)cc(C(=O)NC3Cc4ccccc4C3)n2)c1F [Example 90, 4-Amino-N-(2,3-dihydro-1H-inden-2-yl)-6-((2-fluoro-3-methylphenyl)amino)picolinamide]	C (Increase in comparison with non-treated of 1.2-1.7 fold is shown as C)
Cc1cccc(Nc2cc(N)cc(C(=O)NC3Cc4ccccc4C3)n2)c1O [Example 91, 4-Amino-N-(2,3-dihydro-1H-inden-2-yl)-6-((2-hydroxy-3-methylphenyl)amino)picolinamide]	B (Increase in comparison with non-treated of >1.7-2.0 fold is shown as B)
Nc1cc(Nc2cccc(F)c2)nc(C(=O)NC2Cc3ccccc3C2)c1 [Example 92, 4-Amino-N-(2,3-dihydro-1H-inden-2-yl)-6-((3-fluorophenyl)amino)picolinamide]	A (Increase in comparison with non-treated of >2.0 fold is shown as A)
COc1ccccc1Nc1cc(N)cc(C(=O)Nc2ccccc2)n1 [Example 93, 4-Amino-6-((2-methoxyphenyl)amino)-N-phenylpicolinamide]	B (Increase in comparison with non-treated of >1.7-2.0 fold is shown as B)
Nc1cc(Nc2cccc3c2OCO3)nc(C(=O)Nc2ccccc2)c1 [Example 94, 4-Amino-6-(benzo[d][1,3]dioxol-4-ylamino)-N-phenylpicolinamide]	B (Increase in comparison with non-treated of >1.7-2.0 fold is shown as B)
Nc1cc(Nc2cccc3c2OCO3)nc(C(=O)N2Cc3ccccc3C2)c1 [Example 95, (4-Amino-6-(benzo[d][1,3]dioxol-4-ylamino)pyridin-2-yl)(isoindolin-2-yl)methanone]	C (Increase in comparison with non-treated of 1.2-1.7 fold is shown as C)
COc1ccccc1Nc1cc(N)cc(C(=O)N2Cc3ccccc3C2)n1 [Example 96, (6-(2-Methoxyphenylamino)-4-aminopyridin-2-yl)(isoindolin-2-yl)methanone]	C (Increase in comparison with non-treated of 1.2-1.7 fold is shown as C)
Cc1cccc(Nc2cc(N)cc(C(=O)NC3Cc4ccccc4C3)n2)c1 [Example 97, 4-Amino-N-(2,3-dihydro-1H-inden-2-yl)-6-(m-tolylamino)picolinamide]	A (Increase in comparison with non-treated of >2.0 fold is shown as A)
Nc1cc(Nc2ccc(F)cc2)nc(C(=O)NC2Cc3ccccc3C2)c1 [Example 98, 4-Amino-N-(2,3-dihydro-1H-inden-2-yl)-6-((4-fluorophenyl)amino)picolinamide]	B (Increase in comparison with non-treated of >1.7-2.0 fold is shown as B)
N#Cc1ccccc1Nc1cc(N)cc(C(=O)NC2Cc3ccccc3C2)n1 [Example 99, 4-Amino-6-((2-cyanophenyl)amino)-N-(2,3-dihydro-1H-inden-2-yl)picolinamide]	D
COc1cccc(Nc2cc(N)cc(C(=O)NC3Cc4ccccc4C3)n2)c1 [Example 100, 4-Amino-N-(2,3-dihydro-1H-inden-2-yl)-6-((3-methoxyphenyl)amino)picolinamide]	A (Increase in comparison with non-treated of >2.0 fold is shown as A)
Nc1cc(Nc2ccccc2Cl)nc(C(=O)NC2Cc3ccccc3C2)c1 [Example 101, 4-Amino-6-((2-chlorophenyl)amino)-N-(2,3-dihydro-1H-inden-2-yl)picolinamide]	B (Increase in comparison with non-treated of >1.7-2.0 fold is shown as B)
Nc1cc(Nc2cccnc2)nc(C(=O)NC2Cc3ccccc3C2)c1 [Example 102, 4-Amino-N-(2,3-dihydro-1H-inden-2-yl)-6-(pyridin-3-ylamino)picolinamide]	C (Increase in comparison with non-treated of 1.2-1.7 fold is shown as C)
Nc1cc(Nc2ccccc2F)nc(C(=O)N2Cc3ccccc3C2)c1 [Example 103, (6-(2-Fluorophenylamino)-4-aminopyridin-2-yl)(isoindolin-2-yl)methanone]	C (Increase in comparison with non-treated of 1.2-1.7 fold is shown as C)
Nc1cc(Nc2ccccc2O)nc(C(=O)N2Cc3ccccc3C2)c1 [Example 104, (4-Amino-6-((2-hydroxyphenyl)amino)pyridin-2-yl)(isoindolin-2-yl)methanone]	C (Increase in comparison with non-treated of 1.2-1.7 fold is shown as C)
